Measurements reported in patent publication US20230133672A1, “FUSION POLYPEPTIDE COMPRISING GDF15 AND POLYPEPTIDE REGION CAPABLE OF O-GLYCOSYLATION” (LG CHEM, LTD., priority 2019, published 2023).

Columns and labels:
[1] = Pharmacokinetic test, subcutaneous administration to SD rats (serum ELISA, Human GDF15 Immunoassay); assay type: in vivo; details: 2 mg/kg subcutaneous, serum
Experimental: For evaluation of pharmacokinetic characteristics when each fusion polypeptide was subcutaneously administered to rats, the fusion polypeptides HT-ID1-GDF15, HT-ID2-GDF15 and HT-ID3-GDF15 were subcutaneously administered into SD rats (Koatech, male, 7-week-old, about 250 g; n=3 each; test group) in an amount of 2 mg/kg, respectively, and about 200 μl of blood was collected through the caudal vein at a predetermined time. The blood collection time was performed before administration, and 1, 2, 4, 8, 24, 48, 72, 96, 168, 240 and 336 hours after administration. As the control group for comparison of pharmacokinetic characteristics, GDF15 (R&D Systems) was subcutaneously administered in an amount of 2 mg/kg by the same method to prepare a GDF15 administration group.
After administering into SD Rats as above, blood collected by time-point was centrifuged to obtain serum, and ELISA was performed using Human GDF15 Immunoassay (SGD150, R&D Systems), and the concentration in the serum was measured depending on the time of each polypeptide.

[2] = Repeated administration: body weight change in DIO mice; assay type: in vivo, Mouse, C57BL/6J-DIO
Experimental: The body weight of each mouse was measured on the day of the start of administration of the test substances (before administration), and thereafter, the body weight was measured every day ([…]), and the amount of the administration solution of the test substances was determined on the basis of the most recently measured body weight.
All the experimental results obtained in the present example were expressed as mean±standard error and tested using Prism5 (version 5.01). One-way analysis of variance (ANOVA) was performed on all data, and when significance was observed, Dunnett's test was performed to find out the test groups with a significant difference from the control group (significance level: two-sided 5% and 1%, 0.1%).
Except for the administration dose, animal number and administration cycle, most of the test processes were the same as in Example 2.1.1 above.
The test substances were administered twice a week (Days 0, 4, 7, 11, 14, 18, 21, 25) for a total of 8 times. For comparison, the control group in which the control substance Semaglutide was administered every day was prepared, and the comparison group in which Semaglutide was administered every day was administered once a day daily, and all the administration was progressed from 9 AM.

Substance: HT-ID3-GDF15: Fusion polypeptide: His-Tag, TEV cleavage site, three IgD hinges, GS linker, GDF15 (SEQ ID NO: 3)
- AUCextp (%) [(AUCinf − AUClast)/AUCinf]*100 [1]: 0.287%
- AUClast [1]: 76200 ng·h/mL
- Cmax (maximum concentration in blood) [1]: 1110 ng/mL
- Tmax (reaching time to maximum concentration in blood) [1]: 24 h
- t1/2 (loss half-life) [1]: 26.2 h
- AUCinf ([1]; extrapolated to infinity): 76400 ng·h/mL
- Body Weight, Mean ([2]; Day 0, 3 nmol/kg twice a week): 100.0 % of initial
- Body Weight, Mean ([2]; Day 0, 10 nmol/kg twice a week): 100.0 % of initial
- Body Weight, Mean ([2]; Day 0, 30 nmol/kg twice a week): 100.0 % of initial
- Body Weight, Mean ([2]; Day 1, 3 nmol/kg twice a week): 98.2 % of initial
- Body Weight, Mean ([2]; Day 1, 10 nmol/kg twice a week): 98.5 % of initial
- Body Weight, Mean ([2]; Day 1, 30 nmol/kg twice a week): 98.2 % of initial
- Body Weight, Mean ([2]; Day 2, 3 nmol/kg twice a week): 96.9 % of initial
- Body Weight, Mean ([2]; Day 2, 10 nmol/kg twice a week): 97.3 % of initial
- Body Weight, Mean ([2]; Day 2, 30 nmol/kg twice a week): 97.1 % of initial
- Body Weight, Mean ([2]; Day 3, 3 nmol/kg twice a week): 95.6 % of initial
- Body Weight, Mean ([2]; Day 3, 10 nmol/kg twice a week): 95.7 % of initial
- Body Weight, Mean ([2]; Day 3, 30 nmol/kg twice a week): 95.8 % of initial
- Body Weight, Mean ([2]; Day 4, 3 nmol/kg twice a week): 94.4 % of initial
- Body Weight, Mean ([2]; Day 4, 10 nmol/kg twice a week): 94.6 % of initial
- Body Weight, Mean ([2]; Day 4, 30 nmol/kg twice a week): 94.8 % of initial
- Body Weight, Mean ([2]; Day 5, 3 nmol/kg twice a week): 92.8 % of initial
- Body Weight, Mean ([2]; Day 5, 10 nmol/kg twice a week): 92.8 % of initial
- Body Weight, Mean ([2]; Day 5, 30 nmol/kg twice a week): 92.8 % of initial
- Body Weight, Mean ([2]; Day 6, 3 nmol/kg twice a week): 91.9 % of initial
- Body Weight, Mean ([2]; Day 6, 10 nmol/kg twice a week): 91.5 % of initial
- Body Weight, Mean ([2]; Day 6, 30 nmol/kg twice a week): 91.7 % of initial
- Body Weight, Mean ([2]; Day 7, 3 nmol/kg twice a week): 91.0 % of initial
- Body Weight, Mean ([2]; Day 7, 10 nmol/kg twice a week): 90.7 % of initial
- Body Weight, Mean ([2]; Day 7, 30 nmol/kg twice a week): 90.8 % of initial
- Body Weight, Mean ([2]; Day 8, 3 nmol/kg twice a week): 90.0 % of initial
- Body Weight, Mean ([2]; Day 8, 10 nmol/kg twice a week): 89.8 % of initial
- Body Weight, Mean ([2]; Day 8, 30 nmol/kg twice a week): 89.8 % of initial
- Body Weight, Mean ([2]; Day 9, 3 nmol/kg twice a week): 89.6 % of initial
- Body Weight, Mean ([2]; Day 9, 10 nmol/kg twice a week): 89.3 % of initial
- Body Weight, Mean ([2]; Day 9, 30 nmol/kg twice a week): 89.8 % of initial
- Body Weight, Mean ([2]; Day 10, 3 nmol/kg twice a week): 89.1 % of initial
- Body Weight, Mean ([2]; Day 10, 10 nmol/kg twice a week): 88.7 % of initial
- Body Weight, Mean ([2]; Day 10, 30 nmol/kg twice a week): 89.7 % of initial
- Body Weight, Mean ([2]; Day 11, 3 nmol/kg twice a week): 91.5 % of initial
- Body Weight, Mean ([2]; Day 11, 10 nmol/kg twice a week): 90.9 % of initial
- Body Weight, Mean ([2]; Day 11, 30 nmol/kg twice a week): 92.0 % of initial
- Body Weight, Mean ([2]; Day 12, 3 nmol/kg twice a week): 91.5 % of initial
- Body Weight, Mean ([2]; Day 12, 10 nmol/kg twice a week): 89.8 % of initial
- Body Weight, Mean ([2]; Day 12, 30 nmol/kg twice a week): 90.0 % of initial
- Body Weight, Mean ([2]; Day 13, 3 nmol/kg twice a week): 92.3 % of initial
- Body Weight, Mean ([2]; Day 13, 10 nmol/kg twice a week): 90.1 % of initial
- Body Weight, Mean ([2]; Day 13, 30 nmol/kg twice a week): 90.4 % of initial
- Body Weight, Mean ([2]; Day 14, 3 nmol/kg twice a week): 92.5 % of initial
- Body Weight, Mean ([2]; Day 14, 10 nmol/kg twice a week): 91.0 % of initial
- Body Weight, Mean ([2]; Day 14, 30 nmol/kg twice a week): 90.9 % of initial
- Body Weight, Mean ([2]; Day 15, 3 nmol/kg twice a week): 92.6 % of initial
- Body Weight, Mean ([2]; Day 15, 10 nmol/kg twice a week): 90.0 % of initial
- Body Weight, Mean ([2]; Day 15, 30 nmol/kg twice a week): 89.3 % of initial
- Body Weight, Mean ([2]; Day 16, 3 nmol/kg twice a week): 93.3 % of initial
- Body Weight, Mean ([2]; Day 16, 10 nmol/kg twice a week): 91.2 % of initial
- Body Weight, Mean ([2]; Day 16, 30 nmol/kg twice a week): 89.6 % of initial
- Body Weight, Mean ([2]; Day 17, 3 nmol/kg twice a week): 94.0 % of initial
- Body Weight, Mean ([2]; Day 17, 10 nmol/kg twice a week): 91.8 % of initial
- Body Weight, Mean ([2]; Day 17, 30 nmol/kg twice a week): 90.4 % of initial
- Body Weight, Mean ([2]; Day 18, 3 nmol/kg twice a week): 94.4 % of initial
- Body Weight, Mean ([2]; Day 18, 10 nmol/kg twice a week): 92.3 % of initial
- Body Weight, Mean ([2]; Day 18, 30 nmol/kg twice a week): 91.0 % of initial
- Body Weight, Mean ([2]; Day 19, 3 nmol/kg twice a week): 95.0 % of initial
- Body Weight, Mean ([2]; Day 19, 10 nmol/kg twice a week): 91.9 % of initial
- Body Weight, Mean ([2]; Day 19, 30 nmol/kg twice a week): 90.0 % of initial
- Body Weight, Mean ([2]; Day 20, 3 nmol/kg twice a week): 95.2 % of initial
- Body Weight, Mean ([2]; Day 20, 10 nmol/kg twice a week): 91.2 % of initial
- Body Weight, Mean ([2]; Day 20, 30 nmol/kg twice a week): 89.6 % of initial
- Body Weight, Mean ([2]; Day 21, 3 nmol/kg twice a week): 95.8 % of initial
- Body Weight, Mean ([2]; Day 21, 10 nmol/kg twice a week): 92.1 % of initial
- Body Weight, Mean ([2]; Day 21, 30 nmol/kg twice a week): 90.4 % of initial
- Body Weight, Mean ([2]; Day 22, 3 nmol/kg twice a week): 96.4 % of initial
- Body Weight, Mean ([2]; Day 22, 10 nmol/kg twice a week): 92.1 % of initial
- Body Weight, Mean ([2]; Day 22, 30 nmol/kg twice a week): 90.0 % of initial
- Body Weight, Mean ([2]; Day 23, 3 nmol/kg twice a week): 97.1 % of initial
- Body Weight, Mean ([2]; Day 23, 10 nmol/kg twice a week): 92.5 % of initial
- Body Weight, Mean ([2]; Day 23, 30 nmol/kg twice a week): 90.0 % of initial
- Body Weight, Mean ([2]; Day 24, 3 nmol/kg twice a week): 97.4 % of initial
- Body Weight, Mean ([2]; Day 24, 10 nmol/kg twice a week): 93.2 % of initial
- Body Weight, Mean ([2]; Day 24, 30 nmol/kg twice a week): 91.0 % of initial
- Body Weight, Mean ([2]; Day 25, 3 nmol/kg twice a week): 97.6 % of initial
- Body Weight, Mean ([2]; Day 25, 10 nmol/kg twice a week): 93.7 % of initial
- Body Weight, Mean ([2]; Day 25, 30 nmol/kg twice a week): 91.5 % of initial
- Body Weight, Mean ([2]; Day 26, 3 nmol/kg twice a week): 98.5 % of initial
- Body Weight, Mean ([2]; Day 26, 10 nmol/kg twice a week): 94.2 % of initial
- Body Weight, Mean ([2]; Day 26, 30 nmol/kg twice a week): 91.5 % of initial
- Body Weight, Mean ([2]; Day 27, 3 nmol/kg twice a week): 98.0 % of initial
- Body Weight, Mean ([2]; Day 27, 10 nmol/kg twice a week): 94.4 % of initial
- Body Weight, Mean ([2]; Day 27, 30 nmol/kg twice a week): 91.2 % of initial
- Body Weight, Mean ([2]; Day 28, 3 nmol/kg twice a week): 98.6 % of initial
- Body Weight, Mean ([2]; Day 28, 10 nmol/kg twice a week): 94.1 % of initial
- Body Weight, Mean ([2]; Day 28, 30 nmol/kg twice a week): 91.4 % of initial
